tested on: Caco-2 cells; assay: Caco-2 cell assay permeability; assay type: in vitro ADME, Human; conditions: Caco-2
Text: For general discussions of the Caco Assay see: S. Yee, “In Vitro Permeability Across Caco-2 Cells (Colonic) Can Predict In Vivo (Small Intestinal) Absorption in Man—Fact or Myth” Pharm. Res. 14(6):763-766 (1997) and Yamashita et. al., “Analysis of Drug Permeation Across Caco-2 Monolayer: Implication for Predicting In Vivo Drug Absorption” Pharm. Res. 14(4):486-491(1997). For specific technical aspects see: Grass, G. M. and Sweetana, S. A. “In Vitro Measurement of Gastrointestinal Tissue Permeability Using a New Diffusion Cell” Pharm. Res. 5(6):372-376 (1988); Rubas et. al., “Comparison of the Permeability Characteristics of a Human Colonic Epithelial (Caco-2) Cell Line to Colon of Rabbit, Monkey, and Dog Intestine and Human Drug Absorption” Pharm. Res. 10(1): 113-117 (1993).
High passage (108-120) Caco-2 cells are cultured in Dulbecco's Modified Eagle Media with high Glucose and L-Glutamine (DMEM) (Gibco/Life Technologies, Cat # 11965-084) supplemented with 10% Fetal Bovine Serum, 1× L-Glutamine (Gibco/Life Technologies, Cat # 25030-081) 1× Penicillin-streptomycin (Gibco/Life Technologies, Cat # 15140-122) 1× Non-essential Amino Acids, (Gibco/Life Technologies, Cat # 11140-019). Cells are maintained in T225 cm^2 Cell Culture Flask Tissue Culture Treated (Costar, Cat # 3001) at 37° C. and 5% CO2. For transport experiments, cells are plated at 7.1×10^4 cells/well into 12-well collagen-coated PTFE membrane polystyrene plates with inserts (Costar # 3493, 12 mm diameter, 0.4 um pore size, sterile, tissue culture treated). Cells are fed every 3 days and maintained at 37° C. and 5% CO2 for 21 days to allow complete formation of a polarized monolayer with tight junctions.
Prepare 5 mg/ml stock solution of test compound in DMSO and store at 4° C. Dilute desired amount of 5 mg/ml stock to 10 mL with pH 6.5 Kreb's Henseleit bicarbonate buffer to give a concentration of 100 μM. Then 1 mL of 100 μM solution was further diluted to 5 mL to make the concentration of 20 μM. This 20 μM test solution was used as initial donor dosing solution (D0). Warm drug solution(s) to 37° C. before use.
1. Prewarm buffer, working solutions, and three 12-well plates containing buffer for each plate of 12 inserts. Using a millicell®-ERS equipped with “chopstick” electrodes (Millipore, Bedford, Mass.) check the TEER. This procedure should be done when the cells are at approximately 37° C., since TEER is effected by temperature. Use only those inserts that have TEER above 300 ohms.
2. Decant media and wash each insert once with warm Kreb's-Henseleit bicarbonate buffer.
3. 0.5 mL pH 6.5 Kreb's-Henseleit buffer was added to apical side of the cell monolayers and 1.25 mL pH 7.4 Kreb's-Henseleit buffer to the basolateral chamber. The cells were equilibrated in 37° C. and 5% CO2 incubator for at least 30 minutes.
4. The apical side buffer was removed and replaced with 0.5 mL 20 μM test solutions.
5. The cells were then incubated at 37° C. and 5% CO2.
6. At 30, 60 and 90 minutes time points, the inserts were transferred to new plates which receiver sides contained 1.25 mL warm fresh pH 7.4 Kreb's-Henseleit buffer.
7. The media from all plates were collected as receiver samples.
8. After 60 min transport studies, Lucifer Yellow (0.05 mL×1000 μM) was added to the apical side of the wells. At the end of the transport studies (90 minutes), the fluorescence of the receiver side samples was measured.
Sample solutions from the donor side were collected at the end of the experiments as D90 samples. The dC/dt of test substance was calculated from sampling data at […] (assume 0 ng/mL) and 60 minutes. The apparent permeability coefficient (Papp) was calculated from the following equation, [formula] […]

Q: For CC(C)[C@H](N)C(=O)N1CCC[C@H]1C(=O)OC[C@@H]1O[C@H](n2cnc(C(N)=O)n2)[C@@H](O)[C@H]1O.Cl [Compound 18, 1-(2S-amino-3-methyl-butyryl)-pyrrolidine-2S-carboxylic acid 5S-(3-carbamoyl-[1,2,4]triazol-1-yl)-3R,4S-dihydroxy-tetrahydro-furan-2S-ylmethyl ester, hydrochloride], which Caco-2 permeability is on record?
A: Its Caco-2 permeability is 3.4 ×10⁻⁶ cm/s.

same assay, conditions: apparent permeability coefficient (Papp); apical pH 6.5 to basolateral pH 7.4; 20 μM test solution; 37° C.

Q: With CC[C@H](C)[C@H](N)C(=O)OC[C@@H]1O[C@H](n2cnc(C(N)=O)n2)[C@@H](O)[C@H]1O.Cc1ccc(S(=O)(=O)O)cc1 [Compound 10, 2S-amino-3S-methyl-pentanoic acid 5S-(3-carbamoyl-[1,2,4]triazol-1-yl)-3R,4S-dihydroxy-tetrahydro-furan-2S-ylmethyl ester; compound with toluene-4-sulfonic acid] as the molecule, how does the Caco-2 permeability read?
A: The Caco-2 permeability was 1.5 ×10⁻⁶ cm/s.

Q: Which Caco-2 permeability does the source give for CC(C)C[C@H](N)C(=O)OC[C@@H]1O[C@H](n2cnc(C(N)=O)n2)[C@@H](O)[C@H]1O.Cc1ccc(S(=O)(=O)O)cc1 [Compound 9, 2S-amino-4-methyl-pentanoic acid 5S-(3-carbamoyl-[1,2,4]triazol-1-yl)-3R,4S-dihydroxy-tetrahydro-furan-2S-ylmethyl ester; compound with toluene-4-sulfonic acid] here?
A: The Caco-2 permeability was 0.9 ×10⁻⁶ cm/s.

Q: For CC(C)C(=O)O[C@@H]1[C@H](OC(=O)C(C)C)[C@@H](n2cnc(C(N)=O)n2)O[C@H]1CO [Compound 17, isobutyric acid 2S-(3-carbamoyl-[1,2,4]triazol-1-yl)-5S-hydroxymethyl-4S-isobutyryloxy-tetrahydro-furan-3S-yl ester], which Caco-2 permeability is on record?
A: The Caco-2 permeability was 4.8 ×10⁻⁶ cm/s.

Q: Which Caco-2 permeability does the source give for CCC(=O)OC[C@@H]1O[C@H](n2cnc(C(N)=O)n2)[C@@H](OC(=O)CC)[C@H]1OC(=O)CC [Compound 2, propionic acid 3S,4S-bis-propionyloxy-5S-(3-carbamoyl-[1,2,4]triazol-1-yl)-tetrahydro-furan-2S-ylmethyl ester] here?
A: The Caco-2 permeability was 7.8 ×10⁻⁶ cm/s.

Q: Which Caco-2 permeability does the source give for C[C@H](N)C(=O)OC[C@@H]1O[C@H](n2cnc(C(N)=O)n2)[C@@H](O)[C@H]1O.Cc1ccc(S(=O)(=O)O)cc1 [Compound 7, 2S-amino-propionic acid 5S-(3-carbamoyl-[1,2,4]triazol-1-yl)-3R,4S-dihydroxy-tetrahydro-furan-2S-ylmethyl ester; compound with toluene-4-sulfonic acid] here?
A: Its Caco-2 permeability is 1.2 ×10⁻⁶ cm/s.

Q: Which Caco-2 permeability does the source give for “2S-amino-3-methyl-butyric acid 4S-(2S-amino-3-methyl-butyryloxy)-5S-(3-carbamoyl-[1,2,4]triazol-1-yl)-2S-hydroxymethyl-tetrahydrofuran-3S-yl ester dihydrochloride [Compound 3]” here?
A: The Caco-2 permeability was 8.6 ×10⁻⁶ cm/s.

Q: Which Caco-2 permeability does the source give for NC(=O)c1ncn([C@H]2O[C@@H](CO)[C@H](OC(=O)c3ccccc3)[C@@H]2OC(=O)c2ccccc2)n1 [Compound 28, benzoic acid 4S-benzoyloxy-5S-(3-carbamoyl-[1,2,4]triazol-1-yl)-2S-hydroxymethyl-tetrahydro-furan-3S-yl ester] here?
A: Its Caco-2 permeability is 26.6 ×10⁻⁶ cm/s.

Q: With CCCCCCCC(=O)OC[C@@H]1O[C@H](n2cnc(C(N)=O)n2)[C@@H](O)[C@H]1O [Compound 34, octanoic acid 5S-(3-carbamoyl-[1,2,4]triazol-1-yl)-3R,4S-dihydroxy-tetrahydrofuran-2S-ylmethyl ester] as the molecule, how does the Caco-2 permeability read?
A: The Caco-2 permeability was 6.5 ×10⁻⁶ cm/s.

Q: Which Caco-2 permeability does the source give for CC(C)[C@H](N)C(=O)OC[C@@H]1O[C@H](n2cnc(C(N)=O)n2)[C@@H](O)[C@H]1O.Cl [Compound 5, 2S-amino-3-methyl-butyric acid 5S-(3-carbamoyl-[1,2,4]triazol-1-yl)-3R,4S-dihydroxy-tetrahydro-furan-2S-ylmethyl ester, hydrochloride] here?
A: The Caco-2 permeability was 5.6 ×10⁻⁶ cm/s.

tested on: not given; assay: not given; conditions: background statement; cited from earlier work

Q: For NC(=O)c1ncn([C@H]2O[C@@H](CO)[C@@H](O)[C@H]2O)n1 [levovirin, Levovirin], which “dose absorbed systemically after oral administration” value is on record?
A: Its value is “about 15%”.

tested on: human mononuclear cells; assay: not given; conditions: treatment of human mononuclear cells; cited from earlier work

Q: With NC(=O)c1ncn([C@@H]2O[C@H](CO)[C@@H](O)[C@H]2O)n1 [Ib, ribavirin] as the molecule, how does the “levels of IL-2, TNFα and IFNΓ” value read?
A: Its value is “elevated levels”.

Reference: patent US20040121969A1, “Antiviral nucleoside derivatives” (Roche Palo Alto LLC, priority 2002, published 2004)
